{
  "source": "patent US8716242B2",
  "about": "“β-hairpin peptidomimetics” (priority 2009, dated 2014)",
  "assay": "in vivo",
  "parameters": "species or system male CD-1 mice",
  "details": "for bioavailability / AUC(0-inf) / Cmax / Tmax / half-life / level at 0.083 h / level at 0.25 h / level at 0.5 h / level at 1 h / level at 2 h / level at 4 h / level at 8 h / level at 12 h / level at 24 h: male, CD-1, mouse; for AUC0-∞ dcor. / Cmax dcor.: mouse",
  "procedure": "2.7. Pharmacokinetic Study (PK)\nPharmacokinetic study after intravenous (i.v.) and subcutaneous (s.c.) administration was performed for the compounds of Ex. 17, Ex. 20, Ex. 25, Ex. 26, Ex. 28, and Ex. 29. […] The compounds of Ex. 17, Ex. 25, Ex. 26, Ex. 28, and Ex. 29 were administered i.v. and s.c. as a cassette whereas for the compound of Ex. 20a single i.v. and s.c. administration was accomplished.\n30 grams (±20%) male CD-1 mice obtained from Janvier, France, were used in the study testing the cassette compounds. The vehicle, phosphate buffered saline containing 5% DMSO, was added to give a final concentration of 0.5 mg/mL of the compounds (i.v. route and s.c. route). The volume was 2 mL/kg i.v. and 10 mL/kg s.c. and the cassette compounds were injected to give a final intravenous dose of 1 mg/kg and an subcutaneous dose of 5 mg/kg. Approximately 500 μL of blood were removed from the opened heart at predetermined time intervals (5, 15, 30 min and 1, 2, 4, 8 and 12 hours for the i.v. study and 5, 15, 30 min and 1, 2, 4, 8, 12 and 24 hours for the s.c. study) and added to heparinized tubes. Plasma was removed from pelleted cells upon centrifugation and frozen at −80° C. prior to HPLC-MS analysis. For the compound of Ex. 20 30 grams (±20%) male CD-1 mice obtained from Charles River Laboratories Deutschland GmbH were used. The vehicle, phosphate buffered saline, was added to give a final concentration of 0.2 mg/mL of the compound (i.v. route) and 1 mg/mL (s.c. route). The volume was 5 mL/kg i.v. and s.c. and the compound was injected to give a final intravenous dose of 1 mg/kg and an subcutaneous dose of 5 mg/kg. Approximately 300-400 μL of blood was removed under light isoflurane anesthesia by cardiac puncture at predetermined time intervals (5, 15, 30 min and 1, 2, 3, 4, 6, 12 hours for the i.v. study and 15, min and 1, 2, 4, 6, 8, 12 and 24 hours for the s.c. study) and added to heparinized tubes. Plasma was removed from pelleted cells upon centrifugation and frozen at −80° C. prior to HPLC-MS analysis.\nPreparation of the Plasma Calibration Samples\n“Blank” mouse plasma from untreated animals was used. Aliquots of plasma of 0.2 mL each were spiked with 50 ng of propranolol (Internal Standard, IS), (sample preparation by solid phase extraction on OASIS® HLB cartridges [Waters]) and with known amounts of Ex. 20 in order to obtain 9 plasma calibration samples in the range 10-5000 nM. The OASIS® HLB cartridges were conditioned with 1 mL of methanol and then with 1 mL of 1% NH3 in water. Samples were then diluted with 700 μL of 1% NH3 in water and loaded. The plate was washed with 1 mL of methanol/1% NH3 in water 5/95 (v/v). Elution was performed using 1 mL of 0.1% TFA in methanol.\nThe plate containing eluates was introduced into the concentrator system and taken to dryness. The residues were dissolved in 100 μL of formic acid 0.1%/acetonitrile, 95/5 (v/v) and analysed in the HPLC/MS on a reverse phase analytical column (Jupiter C18, 50×2.0 mm, 5 μm, Phenomenex), using gradient elution (mobile phases A: 0.1% formic acid in water, B: acetonitrile; from 5% B to 100% B in 2 min.).\nPreparation of Plasma Samples\nSamples coming from animal treatments were pooled in order to obtain an appropriate volume for the extraction. If the total volume obtained was less than 0.2 mL the appropriate amount of “blank” mouse plasma was added in order to keep the matrix identical to the calibration curve. Samples were than spiked with IS and processed as described for the calibration curve.\nPharmacokinetic Evaluation\nIn order to perform PK analysis pooled plasma data (n=3 mice) was used. PK parameters were calculated by WinNonLin™ software version 5.2.1 (Pharsight—A Certara™ Company, Mountain View, Calif. 94041 USA) using non-compartmental analysis with a linear up/log down trapezoidal calculation method. For the terminal elimination phase at least 3 time points and a correlation coefficient greater than 0.85 was used. […]",
  "note": "Numbered stars: 1 amine (or outer) side, 2 acyl side, 3 side chain; on linkers, the order of the positions; unused ones are H or OH. Bridge positions count the residues as written; N and C are the ends. Square brackets hold non-standard residues; d marks the D form. Side chains are listed from the residue outwards. Peptide text beside a SMILES is read from it. * marks the point of attachment. γGlu = O=C(O)[C@H](CCC(=O)[*:2])N[*:1]; Myristoyl = CCCCCCCCCCCCCC(=O)*; Lauroyl = CCCCCCCCCCCC(=O)*; Dab = NCC[C@H](N)C(=O)O",
  "data": [
    {"smiles": "CCCCCCCCCCCC(=O)N[C@@H](CCC(=O)NCCCC[C@@H]1NC(=O)[C@H](Cc2ccc(O)cc2)NC(=O)[C@@H]2CSSC[C@H](NC(=O)[C@H](C)NC(=O)[C@H](Cc3c[nH]cn3)NC(=O)[C@H](Cc3ccc(O)cc3)NC(=O)[C@@H]3CCCN3C(=O)[C@H]3CCCN3C(=O)[C@H](CCCCN)NC1=O)C(=O)N[C@@H](CCCNC(=N)N)C(=O)N[C@@H](C)C(=O)N1CCC[C@@H]1C(=O)N[C@@H](CCN)C(=O)N[C@@H](CCCNC(=N)N)C(=O)N[C@@H](Cc1ccc(O)cc1)C(=O)N2)C(=O)O", "note": "[Ex. 26] (cyclo(YHACRA[dP][Dab]RYCYK([γGlu-Lauroyl])K[dP]P); disulfide 4-11)", "values": [
      {"measurement": "bioavailability", "value": 142, "unit": "%"},
      {"measurement": "AUC(0-inf)", "setting": "iv, 1 mg/kg", "value": 3400, "unit": "ng·h/mL"},
      {"measurement": "Cmax", "setting": "iv, 1 mg/kg", "value": 3470, "unit": "ng/mL"},
      {"measurement": "Tmax", "setting": "iv, 1 mg/kg", "value": 0.1, "unit": "h"},
      {"measurement": "half-life", "setting": "iv, 1 mg/kg", "value": 1.3, "unit": "h"},
      {"measurement": "level at 0.083 h", "setting": "iv, 1 mg/kg", "value": 3470, "unit": "ng/mL"},
      {"measurement": "level at 0.25 h", "setting": "iv, 1 mg/kg", "value": 2530, "unit": "ng/mL"},
      {"measurement": "level at 0.5 h", "setting": "iv, 1 mg/kg", "value": 1980, "unit": "ng/mL"},
      {"measurement": "level at 1 h", "setting": "iv, 1 mg/kg", "value": 1540, "unit": "ng/mL"},
      {"measurement": "level at 2 h", "setting": "iv, 1 mg/kg", "value": 219, "unit": "ng/mL"},
      {"measurement": "level at 4 h", "setting": "iv, 1 mg/kg", "value": 98, "unit": "ng/mL"},
      {"measurement": "level at 8 h", "setting": "iv, 1 mg/kg", "value": 10, "unit": "ng/mL"},
      {"measurement": "AUC(0-inf)", "setting": "sc, 5 mg/kg", "value": 24000, "unit": "ng·h/mL"},
      {"measurement": "Cmax", "setting": "sc, 5 mg/kg", "value": 3990, "unit": "ng/mL"},
      {"measurement": "Tmax", "setting": "sc, 5 mg/kg", "value": 2, "unit": "h"},
      {"measurement": "half-life", "setting": "sc, 5 mg/kg", "value": 2.9, "unit": "h"},
      {"measurement": "level at 0.25 h", "setting": "sc, 5 mg/kg", "value": 221, "unit": "ng/mL"},
      {"measurement": "level at 0.5 h", "setting": "sc, 5 mg/kg", "value": 779, "unit": "ng/mL"},
      {"measurement": "level at 1 h", "setting": "sc, 5 mg/kg", "value": 1750, "unit": "ng/mL"},
      {"measurement": "level at 2 h", "setting": "sc, 5 mg/kg", "value": 3990, "unit": "ng/mL"},
      {"measurement": "level at 4 h", "setting": "sc, 5 mg/kg", "value": 2530, "unit": "ng/mL"},
      {"measurement": "level at 8 h", "setting": "sc, 5 mg/kg", "value": 1600, "unit": "ng/mL"},
      {"measurement": "level at 12 h", "setting": "sc, 5 mg/kg", "value": 524, "unit": "ng/mL"},
      {"measurement": "level at 24 h", "setting": "sc, 5 mg/kg", "value": 23, "unit": "ng/mL"},
      {"measurement": "AUC0-∞ dcor.", "setting": "iv, 1 mg/kg", "value": 3395.6, "unit": "kg·ng·h/mg/mL"},
      {"measurement": "Cmax dcor.", "setting": "iv, 1 mg/kg", "value": 3467.0, "unit": "kg·ng/mg/mL"},
      {"measurement": "AUC0-∞ dcor.", "setting": "sc, 5 mg/kg", "value": 4806.6, "unit": "kg·ng·h/mg/mL"},
      {"measurement": "Cmax dcor.", "setting": "sc, 5 mg/kg", "value": 797.4, "unit": "kg·ng/mg/mL"}
    ]},
    {"smiles": "CCCCCCCCCCCCCC(=O)N[C@@H](CCC(=O)NCCCC[C@@H]1NC(=O)[C@H](Cc2ccc(O)cc2)NC(=O)[C@@H]2CSSC[C@H](NC(=O)[C@H](Cc3ccc(O)cc3)NC(=O)[C@H](Cc3c[nH]cn3)NC(=O)[C@H](Cc3ccc(O)cc3)NC(=O)[C@@H]3CCCN3C(=O)[C@H]3CCCN3C(=O)[C@H](CCCCN)NC1=O)C(=O)N[C@@H](CO)C(=O)N[C@@H](C)C(=O)N1CCC[C@@H]1C(=O)N[C@@H](CCN)C(=O)N[C@@H](CCCNC(=N)N)C(=O)N[C@@H](Cc1ccc(O)cc1)C(=O)N2)C(=O)O", "note": "[Ex. 28] (cyclo(YHYCSA[dP][Dab]RYCYK([γGlu-Myristoyl])K[dP]P); disulfide 4-11)", "values": [
      {"measurement": "bioavailability", "value": 150, "unit": "%"},
      {"measurement": "AUC(0-inf)", "setting": "iv, 1 mg/kg", "value": 3430, "unit": "ng·h/mL"},
      {"measurement": "Cmax", "setting": "iv, 1 mg/kg", "value": 2820, "unit": "ng/mL"},
      {"measurement": "Tmax", "setting": "iv, 1 mg/kg", "value": 0.1, "unit": "h"},
      {"measurement": "half-life", "setting": "iv, 1 mg/kg", "value": 3.2, "unit": "h"},
      {"measurement": "level at 0.083 h", "setting": "iv, 1 mg/kg", "value": 2820, "unit": "ng/mL"},
      {"measurement": "level at 0.25 h", "setting": "iv, 1 mg/kg", "value": 2120, "unit": "ng/mL"},
      {"measurement": "level at 0.5 h", "setting": "iv, 1 mg/kg", "value": 2030, "unit": "ng/mL"},
      {"measurement": "level at 1 h", "setting": "iv, 1 mg/kg", "value": 1670, "unit": "ng/mL"},
      {"measurement": "level at 2 h", "setting": "iv, 1 mg/kg", "value": 114, "unit": "ng/mL"},
      {"measurement": "level at 4 h", "setting": "iv, 1 mg/kg", "value": 148, "unit": "ng/mL"},
      {"measurement": "level at 8 h", "setting": "iv, 1 mg/kg", "value": 34, "unit": "ng/mL"},
      {"measurement": "level at 12 h", "setting": "iv, 1 mg/kg", "value": 17, "unit": "ng/mL"},
      {"measurement": "AUC(0-inf)", "setting": "sc, 5 mg/kg", "value": 25700, "unit": "ng·h/mL"},
      {"measurement": "Cmax", "setting": "sc, 5 mg/kg", "value": 1900, "unit": "ng/mL"},
      {"measurement": "Tmax", "setting": "sc, 5 mg/kg", "value": 8, "unit": "h"},
      {"measurement": "half-life", "setting": "sc, 5 mg/kg", "value": 4.3, "unit": "h"},
      {"measurement": "level at 0.25 h", "setting": "sc, 5 mg/kg", "value": 16, "unit": "ng/mL"},
      {"measurement": "level at 0.5 h", "setting": "sc, 5 mg/kg", "value": 73, "unit": "ng/mL"},
      {"measurement": "level at 1 h", "setting": "sc, 5 mg/kg", "value": 232, "unit": "ng/mL"},
      {"measurement": "level at 2 h", "setting": "sc, 5 mg/kg", "value": 1520, "unit": "ng/mL"},
      {"measurement": "level at 4 h", "setting": "sc, 5 mg/kg", "value": 1270, "unit": "ng/mL"},
      {"measurement": "level at 8 h", "setting": "sc, 5 mg/kg", "value": 1900, "unit": "ng/mL"},
      {"measurement": "level at 12 h", "setting": "sc, 5 mg/kg", "value": 1610, "unit": "ng/mL"},
      {"measurement": "level at 24 h", "setting": "sc, 5 mg/kg", "value": 164, "unit": "ng/mL"},
      {"measurement": "AUC0-∞ dcor.", "setting": "iv, 1 mg/kg", "value": 3430.8, "unit": "kg·ng·h/mg/mL"},
      {"measurement": "Cmax dcor.", "setting": "iv, 1 mg/kg", "value": 2817.0, "unit": "kg·ng/mg/mL"},
      {"measurement": "AUC0-∞ dcor.", "setting": "sc, 5 mg/kg", "value": 5137.4, "unit": "kg·ng·h/mg/mL"},
      {"measurement": "Cmax dcor.", "setting": "sc, 5 mg/kg", "value": 380.0, "unit": "kg·ng/mg/mL"}
    ]}
  ]
}
